# Test results published in patent US9156845B2, “4-(substituted amino)-7H-pyrrolo[2,3-d] pyrimidines as LRRK2 inhibitors” (Pfizer Inc., priority 2012, dated 2015).
# Experiments:
# [1] = molecular target: GST-tagged truncated LRRK2 (Homo sapiens (Human), UniProt Q5S007); assay: LRRK2 Lantha Screen kinase assay; type: biochemical; details: geometric mean of 2-5 determinations unless otherwise indicated (a: >=6 determinations; b: single determination); read-out: LRRK2 WT IC50
# Method: LRRK2 kinase activity was measured using Lantha Screen technology from Invitrogen. GST-tagged truncated LRRK2 from Invitrogen (Cat # PV4874) was incubated with a fluorescein-labeled peptide substrate based upon ezrin/radixin/moesin (ERM), also known as LRRKtide (Invitrogen cat #PR8976A), in the presence of a dose response of compound. Upon completion, the assay was stopped and detected with a terbium labeled anti-phospho-ERM antibody (Invitrogen, cat #PR8975A). […] Aliquots (3.5 μL) of the 100% DMSO dose response were mixed with 46.5 μL water then 1 μL of this mixture was added to the 3 μL substrate mix in the 384-well plate. The kinase reaction was started with 3 μL of a working solution of LRRK2 enzyme at a concentration of 4 μg/mL. […] The reaction was allowed to progress at room temperature for two hours and then stopped with the addition of 7 μL of detection buffer (20 mM Tris pH 7.6, 0.01% NP-40, 0.02% NaN3, 6 mM EDTA with 2 nM terbium labeled anti-phospho-ERM).
# [2] = molecular target: mutant G2019S LRRK2 (Homo sapiens (Human), UniProt Q5S007, G2019S); assay: LRRK2 Lantha Screen kinase assay, mutant enzyme; type: biochemical; details: geometric mean of 2-5 determinations unless otherwise indicated (a: >=6 determinations; b: single determination)
# Sequence of mutant G2019S LRRK2 (Q5S007 970-2527 G2019S): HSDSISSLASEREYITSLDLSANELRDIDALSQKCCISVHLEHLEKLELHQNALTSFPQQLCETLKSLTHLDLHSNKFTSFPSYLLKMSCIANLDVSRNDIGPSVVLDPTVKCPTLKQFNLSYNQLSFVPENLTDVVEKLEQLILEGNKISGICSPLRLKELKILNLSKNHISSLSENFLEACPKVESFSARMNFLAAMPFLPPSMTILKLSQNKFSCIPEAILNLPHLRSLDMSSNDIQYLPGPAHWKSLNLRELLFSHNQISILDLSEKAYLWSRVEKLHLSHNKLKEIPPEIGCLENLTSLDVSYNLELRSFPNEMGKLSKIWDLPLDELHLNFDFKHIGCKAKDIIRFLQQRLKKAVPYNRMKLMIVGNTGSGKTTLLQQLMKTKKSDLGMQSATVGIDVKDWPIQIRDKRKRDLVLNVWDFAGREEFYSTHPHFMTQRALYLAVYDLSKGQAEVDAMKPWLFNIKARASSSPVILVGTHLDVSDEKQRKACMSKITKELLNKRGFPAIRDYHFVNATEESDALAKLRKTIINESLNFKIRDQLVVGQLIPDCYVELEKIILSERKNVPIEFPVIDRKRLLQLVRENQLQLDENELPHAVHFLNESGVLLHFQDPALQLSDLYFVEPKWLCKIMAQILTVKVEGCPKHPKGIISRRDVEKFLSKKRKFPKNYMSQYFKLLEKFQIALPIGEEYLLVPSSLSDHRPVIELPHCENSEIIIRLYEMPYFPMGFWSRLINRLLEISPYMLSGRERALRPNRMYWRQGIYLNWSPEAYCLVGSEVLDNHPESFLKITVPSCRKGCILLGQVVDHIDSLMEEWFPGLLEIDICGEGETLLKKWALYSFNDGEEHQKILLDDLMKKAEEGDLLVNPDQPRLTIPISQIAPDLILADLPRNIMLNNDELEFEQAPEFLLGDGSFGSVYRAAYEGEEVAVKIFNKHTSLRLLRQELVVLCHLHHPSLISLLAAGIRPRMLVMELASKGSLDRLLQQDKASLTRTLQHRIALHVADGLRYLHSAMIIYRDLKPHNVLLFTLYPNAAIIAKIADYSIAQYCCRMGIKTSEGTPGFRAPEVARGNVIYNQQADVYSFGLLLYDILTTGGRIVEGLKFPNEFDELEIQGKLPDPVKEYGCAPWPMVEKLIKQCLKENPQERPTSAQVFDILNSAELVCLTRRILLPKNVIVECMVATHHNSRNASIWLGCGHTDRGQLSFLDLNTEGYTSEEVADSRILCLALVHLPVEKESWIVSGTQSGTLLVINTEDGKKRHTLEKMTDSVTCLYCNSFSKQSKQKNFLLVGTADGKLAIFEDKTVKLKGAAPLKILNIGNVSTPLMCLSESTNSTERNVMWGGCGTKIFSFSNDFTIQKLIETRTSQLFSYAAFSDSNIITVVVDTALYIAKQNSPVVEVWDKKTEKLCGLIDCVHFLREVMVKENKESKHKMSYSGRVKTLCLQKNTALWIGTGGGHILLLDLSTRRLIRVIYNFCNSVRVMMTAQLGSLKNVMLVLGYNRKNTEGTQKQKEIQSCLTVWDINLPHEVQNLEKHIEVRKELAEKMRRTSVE
# Sequence of GST-tagged truncated LRRK2 (Q5S007 970-2527): as the sequence (Q5S007 970-2527 G2019S) above, with S1050G counted along it
SMILES,IC50 [1] [nM],IC50 [2] [nM]
"COc1ccc(Cl)cc1-c1c[nH]c2ncnc(N(C)C)c12 [Example 25, 5-(5-chloro-2-methoxyphenyl)-N,N-dimethyl-7H-pyrrolo[2,3-d]pyrimidin-4-amine]",22,19
"N#Cc1cccc(-c2c[nH]c3ncnc(N4CCC(c5ncc[nH]5)CC4)c23)c1 [Example 26, 3-{4-[4-(1H-imidazol-2-yl)piperidin-1-yl]-7H-pyrrolo[2,3-d]pyrimidin-5-yl}benzonitrile]",42,230
"CN(C)C(=O)CCNc1ncnc2[nH]cc(-c3cccc(C#N)c3)c12 [Example 31, N^3-[5-(3-cyanophenyl)-7H-pyrrolo[2,3-d]pyrimidin-4-yl]-N,N-dimethyl-beta-alaninamide]",54,248
"N#Cc1cccc(-c2c[nH]c3ncnc(N4CCC(F)CC4)c23)c1 [Example 33A, 3-[4-(4-fluoropiperidin-1-yl)-7H-pyrrolo[2,3-d]pyrimidin-5-yl]benzonitrile]",17,56
"N#Cc1cccc(-c2c[nH]c3ncnc(N4CCOC(c5cc[nH]n5)C4)c23)c1 (centres unmarked) [Example 36, 3-{4-[2-(1H-pyrazol-3-yl)morpholin-4-yl]-7H-pyrrolo[2,3-d]pyrimidin-5-yl}benzonitrile]",43,238
"N#Cc1cccc(-c2c[nH]c3ncnc(N4CCCC(c5ncc[nH]5)C4)c23)c1 (centres unmarked) [Example 38, 3-{4-[3-(1H-imidazol-2-yl)piperidin-1-yl]-7H-pyrrolo[2,3-d]pyrimidin-5-yl}benzonitrile]",53,331
"CN1CCCC(Nc2ncnc3[nH]cc(-c4cccc(C#N)c4)c23)C1 (centres unmarked) [Example 39, 3-{4-[(1-methylpiperidin-3-yl)amino]-7H-pyrrolo[2,3-d]pyrimidin-5-yl}benzonitrile]",78,243
"CC(=O)NC1CCN(c2ncnc3[nH]cc(-c4cccc(C#N)c4)c23)CC1 [Example 44, N-{1-[5-(3-cyanophenyl)-7H-pyrrolo[2,3-d]pyrimidin-4-yl]piperidin-4-yl}acetamide]",50,190
"C[C@H]1CCCN(c2ncnc3[nH]cc(-c4ccc5[nH]ncc5c4)c23)C1 [Example 45, 5-(1H-indazol-5-yl)-4-[(3S)-3-methylpiperidin-1-yl]-7H-pyrrolo[2,3-d]pyrimidine]",67,66
"C[C@H]1CCCN(c2ncnc3[nH]cc(-c4cccc(S(N)(=O)=O)c4)c23)C1 [Example 46, 3-{4-[(3S)-3-methylpiperidin-1-yl]-7H-pyrrolo[2,3-d]pyrimidin-5-yl}benzenesulfonamide]",24,33
"C[C@H]1CCCN(c2ncnc3[nH]cc(-c4ccccc4F)c23)C1 [Example 47, 5-(2-fluorophenyl)-4-[(3S)-3-methylpiperidin-1-yl]-7H-pyrrolo[2,3-d]pyrimidine]",97,122
"C[C@H]1CCCN(c2ncnc3[nH]cc(-c4cccc5[nH]ncc45)c23)C1 [Example 48, 5-(1H-indazol-4-yl)-4-[(3S)-3-methylpiperidin-1-yl]-7H-pyrrolo[2,3-d]pyrimidine]",10,14
"Cc1cc(-c2c[nH]c3ncnc(N4CCC[C@H](C)C4)c23)cnc1F [Example 49, 5-(6-fluoro-5-methylpyridin-3-yl)-4-[(3S)-3-methylpiperidin-1-yl]-7H-pyrrolo[2,3-d]pyrimidine]",64,65
"C[C@H]1CCCN(c2ncnc3[nH]cc(-c4cnc5[nH]ccc5c4)c23)C1 [Example 53, 4-[(3S)-3-methylpiperidin-1-yl]-5-(7H-pyrrolo[2,3-b]pyridin-5-yl)-7H-pyrrolo[2,3-d]pyrimidine]",74,69
"C[C@H]1CCCN(c2ncnc3[nH]cc(-c4ccc5c(c4)C(=O)NC5)c23)C1 [Example 54, 6-{4-[(3S)-3-methylpiperidin-1-yl]-7H-pyrrolo[2,3-d]pyrimidin-5-yl}-2,3-dihydro-1H-isoindol-1-one]",68,59
"C[C@H]1CCCN(c2ncnc3[nH]cc(-c4cccc(C(N)=O)c4)c23)C1 [Example 60, 3-{4-[(3S)-3-methylpiperidin-1-yl]-7H-pyrrolo[2,3-d]pyrimidin-5-yl}benzamide]",86,58
"N#Cc1cccc(-c2c[nH]c3ncnc(N4CCCC(F)C4)c23)c1 (centres unmarked) [Example 61, 3-[4-(3-fluoropiperidin-1-yl)-7H-pyrrolo[2,3-d]pyrimidin-5-yl]benzonitrile]",12,80

# Further compounds by falling IC50 [1], results first:
IC50 [1] [nM],IC50 [2] [nM],SMILES
95,219,"COCC1CCCN(c2ncnc3[nH]cc(-c4cccc(C#N)c4)c23)C1 (centres unmarked) [Example 27, 3-{4-[3-(methoxymethyl)piperidin-1-yl]-7H-pyrrolo[2,3-d]pyrimidin-5-yl}benzonitrile]"
89,487,"N#Cc1cccc(-c2c[nH]c3ncnc(NCCN4CCOCC4)c23)c1 [Example 42, 3-(4-{[2-(morpholin-4-yl)ethyl]amino}-7H-pyrrolo[2,3-d]pyrimidin-5-yl)benzonitrile]"
84,200,"N#Cc1cccc(-c2c[nH]c3ncnc(N4CCCC(c5cc[nH]n5)C4)c23)c1 (centres unmarked) [Example 37, 3-{4-[3-(1H-pyrazol-3-yl)piperidin-1-yl]-7H-pyrrolo[2,3-d]pyrimidin-5-yl}benzonitrile]"
79,154,"COC1CCCN(c2ncnc3[nH]cc(-c4cccc(C#N)c4)c23)C1 (centres unmarked) [Example 29, 3-[4-(3-methoxypiperidin-1-yl)-7H-pyrrolo[2,3-d]pyrimidin-5-yl]benzonitrile]"
69,136,"N#Cc1cccc(-c2c[nH]c3ncnc(N4CCC(c5cc[nH]n5)CC4)c23)c1 [Example 34, 3-{4-[4-(1H-pyrazol-3-yl)piperidin-1-yl]-7H-pyrrolo[2,3-d]pyrimidin-5-yl}benzonitrile]"
67,333,"N#Cc1cccc(-c2c[nH]c3ncnc(N4CCC(F)(F)CC4)c23)c1 [Example 32, 3-[4-(4,4-difluoropiperidin-1-yl)-7H-pyrrolo[2,3-d]pyrimidin-5-yl]benzonitrile]"
56,95,"C[C@H]1CCCN(c2ncnc3[nH]cc(-c4cccnc4)c23)C1 [Example 51, 4-[(3S)-3-methylpiperidin-1-yl]-5-(pyridin-3-yl)-7H-pyrrolo[2,3-d]pyrimidine]"
53,50,"C[C@H]1CCCN(c2ncnc3[nH]cc(-c4cnc5cc[nH]c5c4)c23)C1 [Example 55, 4-[(3S)-3-methylpiperidin-1-yl]-5-(1H-pyrrolo[3,2-b]pyridin-6-yl)-7H-pyrrolo[2,3-d]pyrimidine]"
40,201,"CN1CCC2(CC1)CN(c1ncnc3[nH]cc(-c4cccc(C#N)c4)c13)CCO2 [Example 28, 3-[4-(9-methyl-1-oxa-4,9-diazaspiro[5.5]undec-4-yl)-7H-pyrrolo[2,3-d]pyrimidin-5-yl]benzonitrile]"
35,119,"N#Cc1cccc(-c2c[nH]c3ncnc(N4CCCC5(CNC(=O)C5)C4)c23)c1 (centres unmarked) [Example 40, 3-[4-(3-oxo-2,7-diazaspiro[4.5]dec-7-yl)-7H-pyrrolo[2,3-d]pyrimidin-5-yl]benzonitrile]"
34,244,"N#Cc1cccc(-c2c[nH]c3ncnc(N4CCCC5(CCOC5)C4)c23)c1 (centres unmarked) [Example 43, 3-[4-(2-oxa-7-azaspiro[4.5]dec-7-yl)-7H-pyrrolo[2,3-d]pyrimidin-5-yl]benzonitrile]"
33,33,"C[C@H]1CCCN(c2ncnc3[nH]cc(-c4ccc5c(c4)CNC5=O)c23)C1 [Example 50, 5-{4-[(3S)-3-methylpiperidin-1-yl]-7H-pyrrolo[2,3-d]pyrimidin-5-yl}-2,3-dihydro-1H-isoindol-1-one]"
30,155,"N#Cc1cccc(-c2c[nH]c3ncnc(N4CC[C@H](F)C4)c23)c1 [Example 35, 3-{4-[(3S)-3-fluoropyrrolidin-1-yl]-7H-pyrrolo[2,3-d]pyrimidin-5-yl}benzonitrile]"
30,30,"Cc1cnc(Cl)c(-c2c[nH]c3ncnc(N4CCC[C@H](C)C4)c23)c1 [Example 59, 5-(2-chloro-5-methylpyridin-3-yl)-4-[(3S)-3-methylpiperidin-1-yl]-7H-pyrrolo[2,3-d]pyrimidine]"
26,28,"C[C@H]1CCCN(c2ncnc3[nH]cc(-c4ccc(O)cc4)c23)C1 [Example 56, 4-{4-[(3S)-3-methylpiperidin-1-yl]-7H-pyrrolo[2,3-d]pyrimidin-5-yl}phenol]"
17,121,"COCC1CN(c2ncnc3[nH]cc(-c4cccc(C#N)c4)c23)CCO1 (centres unmarked) [Example 30, 3-{4-[2-(methoxymethyl)morpholin-4-yl]-7H-pyrrolo[2,3-d]pyrimidin-5-yl}benzonitrile]"
17,96,"N#Cc1cccc(-c2c[nH]c3ncnc(N4CCC(F)CC4)c23)c1 [Example 33, 3-[4-(4-fluoropiperidin-1-yl)-7H-pyrrolo[2,3-d]pyrimidin-5-yl]benzonitrile]"
15,19,"Cc1cncc(-c2c[nH]c3ncnc(N4CCC[C@H](C)C4)c23)c1 [Example 52, 4-[(3S)-3-methylpiperidin-1-yl]-5-(5-methylpyridin-3-yl)-7H-pyrrolo[2,3-d]pyrimidine]"
13,9,"C[C@H]1CCCN(c2ncnc3[nH]cc(-c4ccc(C(N)=O)cc4)c23)C1 [Example 57, 4-{4-[(3S)-3-methylpiperidin-1-yl]-7H-pyrrolo[2,3-d]pyrimidin-5-yl}benzamide]"
9,12,"C[C@H]1CCCN(c2ncnc3[nH]cc(-c4cccc(O)c4)c23)C1 [Example 58, 3-{4-[(3S)-3-methylpiperidin-1-yl]-7H-pyrrolo[2,3-d]pyrimidin-5-yl}phenol]"
